Reference: ChEMBL document CHEMBL3864146, “5-Alkyloxytryptamines are membrane-targeting, broad-spectrum antibiotics” (Bioorg Med Chem Lett, 2016)
Values after ≈ are worked out from the molar mass of the structure shown.

Legend:
[1] = tested on: Escherichia coli; assay: Antibacterial activity against Escherichia coli BW25113 after 16 to 18 hrs by micro-dilution method; format: functional
[2] = tested on: Escherichia coli; assay: Antibacterial activity against tolC-deficient Escherichia coli BW25113 after 16 to 18 hrs by micro-dilution method; format: functional
[3] = tested on: Bacillus subtilis; assay: Antibacterial activity against Bacillus subtilis 168 after 16 to 18 hrs by micro-dilution method; format: functional; conditions: subsp. subtilis str. 168
[4] = tested on: Acinetobacter baumannii; assay: Antibacterial activity against Acinetobacter baumannii after 16 to 18 hrs by micro-dilution method; format: functional
[5] = tested on: Staphylococcus aureus; assay: Antibacterial activity against Staphylococcus aureus after 16 to 18 hrs by micro-dilution method; format: functional
[6] = tested on: Pseudomonas aeruginosa; assay: Antibacterial activity against Pseudomonas aeruginosa after 16 to 18 hrs by micro-dilution method; format: functional
[7] = tested on: Salmonella typhimurium; assay: Antibacterial activity against Salmonella typhimurium after 16 to 18 hrs by micro-dilution method; format: functional, Salmonella enterica subsp. enterica serovar Typhimurium; conditions: Salmonella enterica
[8] = tested on: Vibrio cholerae; assay: Antibacterial activity against Vibrio cholerae after 16 to 18 hrs by micro-dilution method; format: functional
[9] = tested on: Shigella boydii; assay: Antibacterial activity against Shigella boydii after 16 to 18 hrs by micro-dilution method; format: functional
[10] = tested on: Klebsiella pneumoniae; assay: Antibacterial activity against Klebsiella pneumoniae after 16 to 18 hrs by micro-dilution method; format: functional
[11] = tested on: Klebsiella aerogenes; assay: Antibacterial activity against Enterobacter aerogenes after 16 to 18 hrs by micro-dilution method; format: functional
[12] = tested on: Edwardsiella tarda; assay: Antibacterial activity against Edwardsiella tarda after 16 to 18 hrs by micro-dilution method; format: functional
[13] = tested on: Morganella morganii; assay: Antibacterial activity against Morganella morganii after 16 to 18 hrs by micro-dilution method; format: functional
[14] = tested on: Escherichia coli; assay: Induction of membrane permeabilization in Escherichia coli BW25113 at MIC after 15 mins by propidium iodide staining-based fluorescence microplate reader method relative to 50% ethanol; format: functional

Structure (SMILES)	MIC [1] [µg/mL]	MIC [2] [µg/mL]	MIC [3] [µg/mL]	MIC [4] [µg/mL]	MIC [5] [µg/mL]	MIC [6] [µg/mL]	MIC [7] [µg/mL]	MIC [8] [µg/mL]	MIC [9] [µg/mL]	MIC [10] [µg/mL]	MIC [11] [µg/mL]	MIC [12] [µg/mL]	MIC [13] [µg/mL]	Activity [14] [%]
NCCc1c[nH]c2ccccc12 [TRYPTAMINE]	> 51	> 51	> 51	> 51	> 51									
CC(C)CCCC(C)CCOc1ccc2[nH]cc(CCN)c2c1.Cl (configuration not stated)	13	3.2	1.6	13	6.3	25	6.3	6.3	6.3	13	13	25	> 101	
CCCCCCCCCOc1ccc(CCN)cc1	5.3 (≈ 20.1 µM)	1.3 (≈ 4.93 µM)	0.66 (≈ 2.51 µM)	5.3 (≈ 20.1 µM)	2.6 (≈ 9.87 µM)	> 84	5.3 (≈ 20.1 µM)	5.3 (≈ 20.1 µM)	5.3 (≈ 20.1 µM)	5.3 (≈ 20.1 µM)	11 (≈ 41.8 µM)	> 84	> 84	
CCCCCCCCCOc1cccc(N)c1	> 40	10 (≈ 42.5 µM)	40 (≈ 170 µM)	> 80	> 80	> 80	> 80	> 80	> 80	> 80	> 80	> 80	> 80	
COc1ccc2c(CCN)c[nH]c2c1	> 60.8	> 60.8	> 60.8	> 60.8	> 60.8									
CCCCOc1ccc2[nH]cc(CCN)c2c1.Cl	> 74.3	> 74.3	> 74.3	> 74.3	> 74.3	> 74	> 74	> 74	> 74	> 74	> 74	> 74	> 74	3
CCCCCCCCCOc1cccc(CN)c1	9.4 (≈ 37.7 µM)	4.7 (≈ 18.8 µM)	4.7 (≈ 18.8 µM)	9.4 (≈ 37.7 µM)	9.4 (≈ 37.7 µM)	> 75	4.7 (≈ 18.8 µM)	4.7 (≈ 18.8 µM)	9.4 (≈ 37.7 µM)	9.4 (≈ 37.7 µM)	9.4 (≈ 37.7 µM)	19 (≈ 76.2 µM)	38 (≈ 152 µM)	
CCCCCCCCCOc1ccc2[nH]cc(CCNC(=O)OC(C)(C)C)c2c1	> 130	> 130	> 130	> 130	> 130	> 130	> 130	> 130	> 130	> 130	> 130	> 130	> 130	
Cl.NCCc1c[nH]c2ccc(OCCCCCCCc3ccccc3)cc12	14	1.8	1.8	7	3.5	56	7	7	7	7	14	28	> 112	
